# Values joined by “and” are separate entries in the source; they are usually repeats but may differ in a detail not shown here. Equal values may be shown once.
# Columns and labels:
# [1] = system: SNU-354 cells; test: Flow cytometry, sub G1 ratio change (Experimental Example 3); type: cell-based, human; details: 10 μM, 24 hours, vehicle = 1.0
# Procedure: SNU-354 cells were seeded in a 90 mm dish, to which vehicle and the compounds of Examples 2˜6 were treated at the concentration of 10 μM each for 24 hours. The cells were collected and washed with cold PBS, followed by reaction in 500 μl of cold 70% ethanol at 4° C. for overnight to fix the cells. The cells were washed with 500 μl of PBS three times, followed by reaction with 500 μl of PBS containing 50 μg/mL propidium iodide (P1) and 50 μl of 1 mg/mL RNAse A at room temperature for 30 minutes in the darkness. Fluorescence of the P1 stained cell was measured by using FACS caliber flow cytometer and cell quest program (Becton Dickinson Immunocytometry Systems, CA, USA). Sub G1 ratio changes of SNU-354 cells induced by the compounds were measured by FACS analysis.
# [2] = system: caspase-3 activity in SNU-354 cells; test: Measurement of caspase-3 activity (Experimental Example 4); type: cell-based, human; set-up: unit not given here
# Procedure: SNU-354 cells treated with the compounds of Example 1˜Example 6 were lysed with lysis buffer (0.5% triton X-100, 20 mM Tris-HCl (pH 7.5), 2 mM magnesium chloride, 1 mM DTT, 1 mM EGTA, 50 mM β-glycerophosphate, 25 mM sodium fluoride, 1 mM Na3VO4, 2 μg/mL leupeptin, 2 μg/mL pepstatin A, 100 μg/mL phenylmethylsulfonyl fluoride, 1 μg/mL antipain). The protease analysis buffer necessary for the reaction (20 mM HEPES (pH 7.5), 10% glycerol, 2 mM DTT) was mixed with 20 μM Ac-DEVD-AMC (BD Biosciences, CA, USA) and cell lysates, followed by reaction at 37° C. for 1 hour. Upon completion of the reaction, caspase-3 activity was measured at 380 nm of excitation and 460 nm of emission with spectrofluorometer (TECAN, Switzerland) and the results are shown in FIG. 25 and Table 12.
# [3] = system: SNU-354 cells; test: MTT assay, cell viability; type: cell-based; details: Homo sapiens, SNU-354, read-out: Cell viability (%)
# Procedure: Cell viability was measured by MTT assay. SNU-354 cells in the log phase of cell growth curve were distributed in a 24-well plate at the density of 2×10^4 cells/well. […] After allowing enough time for reaction, MTT reagent (MTT dissolved in PBS at the concentration of 5 mg/mL) (Sigma-Aldrich, USA) was added to each well, followed by reaction at 37° C. for 3 hours. Then, the supernatant was eliminated and the precipitated formazan crystals were dissolved in dimethyl sulfoxide, followed by measurement of absorbance with ELISA plate reader.
# [4] = system: SNU-354 cells; test: 3H-thymidine incorporation assay; type: cell-based, human; details: 18˜24 hours
# Procedure: SNU-354 cells were distributed in a 6-well plate at the density of 5×10^4 cells/well, followed by culture in FBS-free medium for 24 hours. 24 hours later, the medium was replaced with the fresh one supplemented with FBS, the compounds of Examples 1 and 2 at different concentrations and 1 μCi/mL [^3H]dT (GE Healthcare, UK). 18˜24 hours later, the cells were washed with cold PBS and then fixed with cold 5% trichloroacetic acid. DNA was lysed in […] sodium hydroxide at 37° C. for 1 hour. Then, [^3H]dT incorporated during intracellular DNA synthesis was measured by LSC (liquid scintillation counting). Intracellular DNA synthesis measured above was used as index for the evaluation of cell viability.
# [5] = system: Cdk7; test: Western blotting of Cdk7 activity (phospho RNA Pol II Ser 5); type: cell-based, human; details: 0 nM = 100
# Procedure: (§1) After treating the compound of Example 2 to SNU-354 cells, cell pellet was lysed with lysis buffer (0.5% triton X-100, 20 mM Tris-HCl (pH 7.5), 2 mM magnesium chloride, 1 mM DTT, 1 mM EGTA, 50 mM β-glycerophosphate, 25 mM sodium fluoride, 1 mM Na3VO4, 2 μg/mL leupeptin, 2 μg/mL pepstatin A, 100 μg/mL phenylmethylsulfonyl fluoride, and 1 μg/mL antipain) at 4° C. for 1 hour, followed by quantification of protein. A proper amount of protein was electrophoresed on SDS-PAGE gel and then transferred onto polyvinylidene difluoride membrane (Millipore Co., Bedford, Mass.). The membrane was reacted in inhibiting solution (PBS, 5% skim milk, 0.1% tween-20) at room temperature for 1˜2 hours. The membrane was reacted with the primary antibody (goat anti-phospho-Rb, rabbit anti-nucleolin) diluted in the inhibiting solution (1:1000). Then, the membrane was washed with PBST, followed by reaction with the proper secondary antibody (horseradish peroxidase (HRP) conjugated) at room temperature for 1 hour.
# (§2) Experiment was performed by the same manner as described in step 2 of Experimental Example 1 except that rabbit anti-phospho RNA Pol II (Ser 5) and rabbit anti-phospho RNA Pol II (Ser 2) (from Bethyl, TX, USA) were used as primary antibodies. The results are shown FIG. 9˜FIG. 12, and Table 4 and Table 5.
# [6] = target: T1, Cdk7/cyclin H/MAT1 (Homo sapiens, UniProt P50613); test: In vitro kinase assay of Cdk7, RNA Pol II-CTD-GST substrate; type: biochemical; details: 0 nM = 100
# T1 construct: purchased Upstate
# T1 sequence (P50613 whole entry): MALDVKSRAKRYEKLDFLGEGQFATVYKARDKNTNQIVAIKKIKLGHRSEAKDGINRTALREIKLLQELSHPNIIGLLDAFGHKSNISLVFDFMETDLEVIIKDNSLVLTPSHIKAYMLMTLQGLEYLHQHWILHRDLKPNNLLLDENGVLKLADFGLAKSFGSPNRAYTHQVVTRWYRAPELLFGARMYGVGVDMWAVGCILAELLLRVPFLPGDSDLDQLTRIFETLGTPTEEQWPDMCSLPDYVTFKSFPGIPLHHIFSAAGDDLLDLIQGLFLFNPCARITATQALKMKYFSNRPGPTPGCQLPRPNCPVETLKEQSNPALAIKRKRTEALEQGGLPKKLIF
# T1 sequence (P51946 whole entry partner): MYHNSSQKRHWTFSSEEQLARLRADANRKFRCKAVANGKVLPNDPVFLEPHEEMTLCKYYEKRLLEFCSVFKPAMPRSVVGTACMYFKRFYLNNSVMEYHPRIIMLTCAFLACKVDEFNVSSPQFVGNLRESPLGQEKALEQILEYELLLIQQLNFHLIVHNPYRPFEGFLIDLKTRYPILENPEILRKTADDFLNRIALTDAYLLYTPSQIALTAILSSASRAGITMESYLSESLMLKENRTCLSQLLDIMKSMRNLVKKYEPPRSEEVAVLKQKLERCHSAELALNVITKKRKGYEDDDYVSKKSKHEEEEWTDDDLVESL
# T1 sequence (P51948 whole entry partner): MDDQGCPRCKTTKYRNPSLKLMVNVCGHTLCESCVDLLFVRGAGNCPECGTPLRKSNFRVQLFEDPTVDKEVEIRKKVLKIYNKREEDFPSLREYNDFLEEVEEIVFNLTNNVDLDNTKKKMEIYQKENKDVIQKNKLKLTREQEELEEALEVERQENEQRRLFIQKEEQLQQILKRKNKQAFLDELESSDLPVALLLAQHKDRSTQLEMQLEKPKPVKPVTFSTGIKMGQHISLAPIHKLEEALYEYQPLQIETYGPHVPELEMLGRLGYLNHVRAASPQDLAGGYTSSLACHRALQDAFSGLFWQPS
# Procedure: (§3) To kinase assay buffer were added RNA Pol II-CTD-GST protein (Jena Bioscience, Germany) as a substrate, Cdk9/cyclin T1 or Cdk7/cyclin H/MAT1 recombinant protein (Upstate) as an enzyme, 2.5 μCi [γ-32P]ATP, and 100 μM MgAc/ATP. The total reaction volume was adjusted to 50 μl. Kinase assay reaction was induced at 30° C. for 20 minutes. Upon completion of the reaction, electrophoresis was performed on 8% SDS-polyacrylamide gel. The activities of Cdk7 and Cdk9 over the concentrations of the compounds of Example 1 and Example 2 were confirmed by autoradiography and the results are shown in FIG. 5˜FIG. 8 and Table 3.
# (§4) The intensity of bands was analyzed by densitometry (GS-800, Bio-Rad).
# [7] = system: Cdk9; test: Western blotting of Cdk9 activity (phospho RNA Pol II Ser 2); type: cell-based, human; details: 0 nM = 100
# Procedure: as §1, §2
# [8] = target: T2, Cdk9/cyclin T1 (Homo sapiens, UniProt P50750); test: In vitro kinase assay of Cdk9, RNA Pol II-CTD-GST substrate; type: biochemical; details: 0 nM = 100
# T2 construct: purchased Upstate
# T2 sequence (P50750 whole entry): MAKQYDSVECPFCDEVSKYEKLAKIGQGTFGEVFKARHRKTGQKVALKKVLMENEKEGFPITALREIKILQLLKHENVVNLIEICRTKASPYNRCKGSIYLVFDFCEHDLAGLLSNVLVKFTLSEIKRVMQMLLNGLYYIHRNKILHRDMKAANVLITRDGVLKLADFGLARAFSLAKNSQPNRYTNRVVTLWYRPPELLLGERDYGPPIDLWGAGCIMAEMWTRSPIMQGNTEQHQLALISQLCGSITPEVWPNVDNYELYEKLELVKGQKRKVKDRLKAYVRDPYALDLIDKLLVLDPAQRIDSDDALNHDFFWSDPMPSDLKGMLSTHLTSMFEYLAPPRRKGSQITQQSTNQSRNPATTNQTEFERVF
# T2 sequence (O60563 whole entry partner): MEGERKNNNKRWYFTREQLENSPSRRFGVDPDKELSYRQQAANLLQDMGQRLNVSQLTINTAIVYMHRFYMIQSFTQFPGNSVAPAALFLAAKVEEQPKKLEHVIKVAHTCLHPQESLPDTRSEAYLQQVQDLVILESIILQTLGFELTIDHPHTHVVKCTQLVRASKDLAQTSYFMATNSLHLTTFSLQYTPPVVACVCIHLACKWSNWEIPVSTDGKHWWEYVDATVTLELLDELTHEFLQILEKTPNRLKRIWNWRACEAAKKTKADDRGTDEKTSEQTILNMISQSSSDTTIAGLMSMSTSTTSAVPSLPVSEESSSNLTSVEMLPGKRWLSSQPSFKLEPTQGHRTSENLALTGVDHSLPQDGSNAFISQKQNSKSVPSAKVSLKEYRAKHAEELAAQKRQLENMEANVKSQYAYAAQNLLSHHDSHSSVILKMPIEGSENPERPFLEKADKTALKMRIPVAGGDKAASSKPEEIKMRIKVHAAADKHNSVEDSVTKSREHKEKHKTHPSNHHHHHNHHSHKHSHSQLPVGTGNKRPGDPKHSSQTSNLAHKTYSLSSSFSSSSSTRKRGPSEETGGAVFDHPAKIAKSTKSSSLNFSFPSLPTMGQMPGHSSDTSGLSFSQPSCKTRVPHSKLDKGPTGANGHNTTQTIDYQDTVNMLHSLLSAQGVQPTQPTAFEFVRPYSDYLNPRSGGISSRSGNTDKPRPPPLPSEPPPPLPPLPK
# Procedure: as §3, §4
compound,measurement,setting,value
"CC(C)(C)C(=O)OC[C@@H]1O[C@H](n2cnc(N)c3c(C(N)=O)c(Br)nc2-3)[C@H](O)[C@H]1O [Example 3, ((2S,3R,4R,5S)-5-(4-amino-6-bromo-5-carbamoyl-1H-pyrrolo[2,3-d]pyrimidin-1-yl)-3,4-dihydroxy-tetrahydrofuran-2-yl)methyl pivalate]",sub G1 ratio change,[1],5.7
same,Caspase-3 activity,[2]; 5 μM,8.2
same,Caspase-3 activity,[2]; 10 μM,7.8
"CC(=O)O[C@H]1[C@H](OC(C)=O)[C@@H](n2cnc(N)c3c(C(N)=O)c(Br)nc2-3)O[C@H]1COC(=O)C(C)C [Example 4, (2S,3S,4R,5S)-2-(4-amino-6-bromo-5-carbamoyl-1H-pyrrolo[2,3-d]pyrimidin-1-yl)-5-(isobutyryloxymethyl)tetrahydrofuran-3,4-diyl diacetate]",sub G1 ratio change,[1],5.5
same,Caspase-3 activity,[2]; 5 μM,5.1
same,Caspase-3 activity,[2]; 10 μM,7.0
"NC(=O)c1c(Br)n([C@H]2O[C@@H](COC(=O)c3ccccc3)[C@@H](O)[C@@H]2O)c2ncnc(N)c12 [Example 5, ((2S,3S,4S,5S)-5-(4-amino-6-bromo-5-carbamoyl-7H-pyrrolo[2,3-d]pyrimidin-7-yl)-3,4-dihydroxytetrahydrofuran-2-yl)methyl benzoate]",sub G1 ratio change,[1],5.5 and 6.0
same,Caspase-3 activity,[2]; 5 μM,9.0
same,Caspase-3 activity,[2]; 10 μM,10.3
"CCC(=O)OC[C@@H]1O[C@H](n2c(Br)c(C(N)=O)c3c(N)ncnc32)[C@@H](O)[C@@H]1O [Example 6, ((2S,3S,4S,5S)-5-(4-amino-6-bromo-5-carbamoyl-7H-pyrrolo[2,3-d]pyrimidin-7-yl)-3,4-dihydroxytetrahydrofuran-2-yl)methyl propionate]",sub G1 ratio change,[1],5.9
same,Caspase-3 activity,[2]; 5 μM,10.7
same,Caspase-3 activity,[2]; 10 μM,11.7
"Cn1cnc2c(NCc3ccccc3)nc(NCCO)nc21 [Olomoucine, olomoucine, reference compound]",viability at 0.5 µM,[3],98.9%
same,viability at 1 µM,[3],99.9%
same,viability at 2 µM,[3],99.9%
same,viability at 5 µM,[3],98.5%
same,viability at 10 µM,[3],101%
same,viability at 50 µM,[3],96%
same,^3H-thymidine incorporation (%),[4]; 5.0 μM,99.7%
same,^3H-thymidine incorporation (%),[4]; 10.0 μM,96.3%
same,^3H-thymidine incorporation (%),[4]; 50.0 μM,77.2%
"CC[C@H](CO)Nc1nc(NCc2ccccc2)c2ncn(C(C)C)c2n1 [Roscosvitine, roscosvitine, reference compound]",Cdk7 activity,[5]; 0.1 nM,96.0%
same,Cdk7 activity,[5]; 0.5 nM,73.1%
same,Cdk7 activity,[5]; 1 nM,51.5%
same,Cdk7 activity,[5]; 5 nM,51.6%
same,Cdk7 activity,[5]; 10 nM,49.9%
same,Cdk7 activity,[5]; 50 nM,4.0%
same,Cdk7 activity,[6]; 10 nM,92.0%
same,Cdk7 activity,[6]; 100 nM,43.4%
same,Cdk7 activity,[6]; 1000 nM,17.4%
same,^3H-thymidine incorporation (%),[4]; 5.0 μM,98.2%
same,^3H-thymidine incorporation (%),[4]; 10.0 μM,91.0%
same,^3H-thymidine incorporation (%),[4]; 50.0 μM,47.2%
same,Cdk9 activity,[7]; 0.1 nM,69.3%
same,Cdk9 activity,[7]; 0.5 nM,48.5%
same,Cdk9 activity,[7]; 1 nM,38.1%
same,Cdk9 activity,[7]; 5 nM,35.7%
same,Cdk9 activity,[7]; 10 nM,34.6%
same,Cdk9 activity,[7]; 50 nM,2.2%
same,Cdk9 activity,[8]; 10 nM,55.6%
same,Cdk9 activity,[8]; 100 nM,44.6%
same,Cdk9 activity,[8]; 1000 nM,42.2%

# From patent US9062088B2, “CDK-inhibiting pyrrolopyrimidine carboxamide derivative or pharmaceutically acceptable salt thereof, and pharmaceutical composition containing the same as active ingredient for preventing or treating hepatocellular carcinoma” (SNU R&DB Foundation, priority 2010, dated 2015)
